# Measurements published in article PMC9259847, “Baicalin Induces a Potent Innate Immune Response to Inhibit Respiratory Syncytial Virus Replication via Regulating Viral Non-Structural 1 and Matrix RNA” (Frontiers in Immunology, 2022).
# Target: T1, NS1 protein (RSV non-structural protein NS1) (Human respiratory syncytial virus A2, UniProt P0DOE9)
# T1 construct: gene 1C; NS1 coupled to CM5 chip
# Assay: SPR (Biacore T200, NS1 coupled to CM5 chip)
# Assay type: binding
# T1 sequence (P0DOE9 whole entry): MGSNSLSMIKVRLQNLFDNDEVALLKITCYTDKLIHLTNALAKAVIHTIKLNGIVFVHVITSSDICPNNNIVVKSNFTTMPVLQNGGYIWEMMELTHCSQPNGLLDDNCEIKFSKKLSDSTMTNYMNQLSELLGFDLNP
compound,measurement,value
O=C(O)[C@H]1O[C@@H](Oc2cc3oc(-c4ccccc4)cc(=O)c3c(O)c2O)[C@H](O)[C@@H](O)[C@@H]1O [baicalin],Kd,11.2 µM
